From publication PMC5218480 (PLoS ONE, 2017) come the findings set out here.

For this test, the system named is MV-4-11 cells. The test is described as follows: Gene expression microarray analysis (Affymetrix PrimeView) and GSEA. In kind it is cell-based, human. More on the design: RFU PODN (11730768_x_at) / Fold change /veh PODN (11730768_x_at) / RFU LINC00158 (11744669_a_at) / Fold change /veh LINC00158 (11744669_a_at) / RFU DUSP10 (11751237_a_at) / Fold change /veh DUSP10 (11751237_a_at) / RFU ID3 (11757404_x_at) / Fold change /veh ID3 (11757404_x_at) / RFU PLEKHG5 (11737974_s_at) / Fold change /veh PLEKHG5 (11737974_s_at) / RFU LRRC4B (11730491_at) / Fold change /veh LRRC4B (11730491_at) / RFU GIMAP4 (11747438_a_at) / Fold change /veh GIMAP4 (11747438_a_at) / RFU KRT8 (11758183_x_at) / Fold change /veh KRT8 (11758183_x_at) / RFU CNN1 (11734310_a_at) / Fold change /veh CNN1 (11734310_a_at) / RFU VPS37D (11726825_at) / Fold change /veh VPS37D (11726825_at) / RFU C10orf10 (11716522_x_at) / Fold change /veh C10orf10 (11716522_x_at) / RFU KIR2DL2 /// KIR2DL4 /// KIR2DL5A /// KIR2DL5B /// KIR2DS1 /// KIR2DS2 /// KIR2DS3 /// KIR2DS4 /// KIR3DL3 /// KIR3DL3 /// KIR3DS1 (11738374_at) / Fold change /veh KIR2DL2 /// KIR2DL4 /// KIR2DL5A /// KIR2DL5B /// KIR2DS1 /// KIR2DS2 /// KIR2DS3 /// KIR2DS4 /// KIR3DL3 /// KIR3DL3 /// KIR3DS1 (11738374_at) / RFU C1QL1 (11718748_at) / Fold change /veh C1QL1 (11718748_at) / RFU TMPRSS4 (11747572_a_at) / Fold change /veh TMPRSS4 (11747572_a_at) / RFU HAMP (11756126_x_at) / Fold change /veh HAMP (11756126_x_at) / RFU RNFT2 (11725882_a_at) / Fold change /veh RNFT2 (11725882_a_at) / RFU NR4A2 (11747474_a_at) / Fold change /veh NR4A2 (11747474_a_at) / RFU ABCC12 (11746883_a_at) / Fold change /veh ABCC12 (11746883_a_at) / RFU TMEM136 (11760407_x_at) / Fold change /veh TMEM136 (11760407_x_at) / RFU CLDN22 /// WWC2 (11732394_at) / Fold change /veh CLDN22 /// WWC2 (11732394_at) / RFU HLA-DPB1 (11760878_x_at) / Fold change /veh HLA-DPB1 (11760878_x_at) / RFU SPINT1 (11716480_a_at) / Fold change /veh SPINT1 (11716480_a_at) / RFU GAP43 (11754022_s_at) / Fold change /veh GAP43 (11754022_s_at) / RFU A4GNT (11735810_at) / Fold change /veh A4GNT (11735810_at) / RFU PRB3 (11715151_x_at) / Fold change /veh PRB3 (11715151_x_at) / RFU TUBB4B (11761932_at) / Fold change /veh TUBB4B (11761932_at) / RFU CAPN14 (11732068_a_at) / Fold change /veh CAPN14 (11732068_a_at) / RFU TMCC2 (11721928_a_at) / Fold change /veh TMCC2 (11721928_a_at) / RFU IRGQ (11745062_a_at) / Fold change /veh IRGQ (11745062_a_at) / RFU FAM174B (11720279_a_at) / Fold change /veh FAM174B (11720279_a_at) / RFU TMPRSS4 (11748680_a_at) / Fold change /veh TMPRSS4 (11748680_a_at) / RFU FAM212B (11763350_a_at) / Fold change /veh FAM212B (11763350_a_at) / RFU PLEKHG5 (11743358_a_at) / Fold change /veh PLEKHG5 (11743358_a_at) / RFU ZSCAN30 (11745921_a_at) / Fold change /veh ZSCAN30 (11745921_a_at) / RFU CMKLR1 (11741424_a_at) / Fold change /veh CMKLR1 (11741424_a_at) / RFU LOC101060620 /// MAPK8IP1 (11723275_at) / Fold change /veh LOC101060620 /// MAPK8IP1 (11723275_at) / RFU SPTSSB (11747773_x_at) / Fold change /veh SPTSSB (11747773_x_at) / RFU PRSS12 (11739890_at) / Fold change /veh PRSS12 (11739890_at) / RFU BIN1 (11741810_x_at) / Fold change /veh BIN1 (11741810_x_at) / RFU WNT11 (11732464_a_at) / Fold change /veh WNT11 (11732464_a_at) / RFU C10orf10 (11716521_a_at) / Fold change /veh C10orf10 (11716521_a_at) / RFU C5orf56 (11738089_at) / Fold change /veh C5orf56 (11738089_at) / RFU CYB561 (11721691_x_at) / Fold change /veh CYB561 (11721691_x_at) / RFU ANKRD19P (11752326_a_at) / Fold change /veh ANKRD19P (11752326_a_at) / RFU OR2T12 /// OR2T33 /// OR2T8 (11738714_s_at) / Fold change /veh OR2T12 /// OR2T33 /// OR2T8 (11738714_s_at) / RFU VCAN (11748164_a_at) / Fold change /veh VCAN (11748164_a_at) / RFU JSRP1 (11732532_at) / Fold change /veh JSRP1 (11732532_at) / RFU KRTAP10-11 (11738290_x_at) / Fold change /veh KRTAP10-11 (11738290_x_at) / RFU MYO3A (11730013_a_at) / Fold change /veh MYO3A (11730013_a_at) / RFU EBF3 (11725865_a_at) / Fold change /veh EBF3 (11725865_a_at) / RFU CAMK2N1 (11719241_x_at) / Fold change /veh CAMK2N1 (11719241_x_at) / RFU C5orf56 (11738088_a_at) / Fold change /veh C5orf56 (11738088_a_at) / RFU OLFML3 (11715873_a_at) / Fold change /veh OLFML3 (11715873_a_at) / RFU LOC100653217 /// NTM (11731650_a_at) / Fold change /veh LOC100653217 /// NTM (11731650_a_at) / RFU MAPK11 (11762145_a_at) / Fold change /veh MAPK11 (11762145_a_at) / RFU FIZ1 (11724087_x_at) / Fold change /veh FIZ1 (11724087_x_at) / RFU OASL (11726364_x_at) / Fold change /veh OASL (11726364_x_at) / RFU SOX15 (11748057_x_at) / Fold change /veh SOX15 (11748057_x_at) / RFU CD79A (11719716_a_at) / Fold change /veh CD79A (11719716_a_at) / RFU HIST1H1D (11736915_at) / Fold change /veh HIST1H1D (11736915_at) / RFU CASKIN2 (11723855_a_at) / Fold change /veh CASKIN2 (11723855_a_at) / RFU LOC730098 (11760151_x_at) / Fold change /veh LOC730098 (11760151_x_at) / RFU OR4N2 (11742367_at) / Fold change /veh OR4N2 (11742367_at) / RFU PRRT2 (11749266_a_at) / Fold change /veh PRRT2 (11749266_a_at) / RFU SNX32 (11753110_a_at) / Fold change /veh SNX32 (11753110_a_at) / RFU CDHR5 (11726645_a_at) / Fold change /veh CDHR5 (11726645_a_at) / RFU RCAN1 (11760418_a_at) / Fold change /veh RCAN1 (11760418_a_at) / RFU FAM167A (11723789_a_at) / Fold change /veh FAM167A (11723789_a_at) / RFU FAM26E (11764081_at) / Fold change /veh FAM26E (11764081_at) / RFU ISYNA1 (11749810_s_at) / Fold change /veh ISYNA1 (11749810_s_at) / RFU ACY1 (11761880_at) / Fold change /veh ACY1 (11761880_at) / RFU 11764098_at / Fold change /veh 11764098_at / RFU SAMD14 (11745864_x_at) / Fold change /veh SAMD14 (11745864_x_at) / RFU NPB (11741838_a_at) / Fold change /veh NPB (11741838_a_at) / RFU TMPRSS6 (11731388_a_at) / Fold change /veh TMPRSS6 (11731388_a_at) / RFU KRTAP10-2 (11738614_at) / Fold change /veh KRTAP10-2 (11738614_at) / RFU ARHGAP8 /// PRR5-ARHGAP8 (11727945_x_at) / Fold change /veh ARHGAP8 /// PRR5-ARHGAP8 (11727945_x_at) / RFU KRTAP5-7 /// NADSYN1 (11734609_at) / Fold change /veh KRTAP5-7 /// NADSYN1 (11734609_at) / RFU RASL12 (11751679_a_at) / Fold change /veh RASL12 (11751679_a_at) / RFU CDKN2B (11736163_a_at) / Fold change /veh CDKN2B (11736163_a_at) / RFU PRF1 (11729649_at) / Fold change /veh PRF1 (11729649_at) / RFU, ZNF638 /// ZNF638-IT1 / Fold change vs veh, ZNF638 /// ZNF638-IT1 / RFU, PANK3 / Fold change vs veh, PANK3 / RFU, SH3YL1 / Fold change vs veh, SH3YL1 / RFU, ZEB2 / Fold change vs veh, ZEB2 / RFU, NRIP1 / Fold change vs veh, NRIP1 / RFU, PTTG1IP / Fold change vs veh, PTTG1IP / RFU, CAPN2 / Fold change vs veh, CAPN2 / RFU, MED14 / Fold change vs veh, MED14 / RFU, SNORA58 / Fold change vs veh, SNORA58 / RFU, C1orf63 / Fold change vs veh, C1orf63 / RFU, LRRFIP1 / Fold change vs veh, LRRFIP1 / RFU, NDUFAF7 / Fold change vs veh, NDUFAF7 / RFU, SLC12A2 / Fold change vs veh, SLC12A2 / RFU, IBTK / Fold change vs veh, IBTK / RFU, ESF1 / Fold change vs veh, ESF1 / Fold change vs veh, TMEM50B / RFU, TAOK1 / Fold change vs veh, TAOK1 / RFU, ACBD3 / Fold change vs veh, ACBD3 / RFU, TMA16 / Fold change vs veh, TMA16 / RFU, RWDD3 / Fold change vs veh, RWDD3 / RFU, BCAT1 / Fold change vs veh, BCAT1 / RFU, EDEM3 / Fold change vs veh, EDEM3 / RFU, TMEM33 / Fold change vs veh, TMEM33 / RFU, WDR75 / Fold change vs veh, WDR75 / RFU, AHCTF1 / Fold change vs veh, AHCTF1 / RFU, TFRC / Fold change vs veh, TFRC / RFU, ZDHHC17 / Fold change vs veh, ZDHHC17 / RFU, NOM1 / Fold change vs veh, NOM1 / RFU, ARL8B / Fold change vs veh, ARL8B / RFU, ZBTB11 / Fold change vs veh, ZBTB11 / RFU, TAMM41 / Fold change vs veh, TAMM41 / RFU, KIAA1704 /// LOC100996395 / Fold change vs veh, KIAA1704 /// LOC100996395 / RFU, ING1 / Fold change vs veh, ING1 / RFU, TRMT61B / Fold change vs veh, TRMT61B / RFU, FUBP3 / Fold change vs veh, FUBP3 / RFU, TP53 / Fold change vs veh, TP53 / RFU, TNKS2 / Fold change vs veh, TNKS2 / RFU, ZFP14 / Fold change vs veh, ZFP14 / RFU, ACTR2 / Fold change vs veh, ACTR2 / RFU, PPP3R1 / Fold change vs veh, PPP3R1 / RFU, PIK3R1 / Fold change vs veh, PIK3R1 / RFU, HNRNPA1 / Fold change vs veh, HNRNPA1 / RFU, RNF170 / Fold change vs veh, RNF170 / RFU, ZNF28 / Fold change vs veh, ZNF28 / RFU, RNGTT / Fold change vs veh, RNGTT / RFU, OGT / Fold change vs veh, OGT / RFU, BRD1 / Fold change vs veh, BRD1 / RFU, MARS / Fold change vs veh, MARS / RFU, ZNF655 / Fold change vs veh, ZNF655 / RFU, FAHD1 / Fold change vs veh, FAHD1 / RFU, BDP1 / Fold change vs veh, BDP1 / RFU, LRRCC1 / Fold change vs veh, LRRCC1 / RFU, ARID1A / Fold change vs veh, ARID1A / RFU, ZNF146 / Fold change vs veh, ZNF146 / RFU, ZNF330 / Fold change vs veh, ZNF330 / RFU, GPN3 / Fold change vs veh, GPN3 / RFU, C9orf123 / Fold change vs veh, C9orf123 / RFU, N4BP2L2 / Fold change vs veh, N4BP2L2 / RFU, ARFIP1 / Fold change vs veh, ARFIP1 / RFU, FAM179B / Fold change vs veh, FAM179B / RFU, BCL10 / Fold change vs veh, BCL10 / RFU, UHRF1BP1L / Fold change vs veh, UHRF1BP1L / RFU, BET1 / Fold change vs veh, BET1 / RFU, CNOT2 / Fold change vs veh, CNOT2 / RFU, ZNF268 / Fold change vs veh, ZNF268 / Fold change vs veh, ZNF507 / RFU, DGCR2 / Fold change vs veh, DGCR2 / RFU, WDSUB1 / Fold change vs veh, WDSUB1 / Fold change vs veh, HSP90B1 /// MIR3652 / RFU, ADSS / Fold change vs veh, ADSS / RFU, GK / Fold change vs veh, GK / RFU, ZNF148 / Fold change vs veh, ZNF148 / RFU, TAF9 / Fold change vs veh, TAF9 / RFU, SLC1A5 / Fold change vs veh, SLC1A5 / RFU, SLMO2 / Fold change vs veh, SLMO2 / RFU, ABCC4 / Fold change vs veh, ABCC4 / RFU, LOC101060439 /// RAP1B / Fold change vs veh, LOC101060439 /// RAP1B / RFU, RFX7 / Fold change vs veh, RFX7 / RFU, GTPBP10 / Fold change vs veh, GTPBP10 / RFU, CNEP1R1 / Fold change vs veh, CNEP1R1 / RFU, BIVM-ERCC5 /// ERCC5 / Fold change vs veh, BIVM-ERCC5 /// ERCC5 / RFU, ILF3 / Fold change vs veh, ILF3 / RFU 11762660_at / Fold change /veh 11762660_at / RFU VCAN (11757783_s_at) / Fold change /veh VCAN (11757783_s_at) / RFU DDX43 (11728927_at) / Fold change /veh DDX43 (11728927_at) / RFU KRT8 (11758188_x_at) / Fold change /veh KRT8 (11758188_x_at) / RFU NKD1 (11759106_at) / Fold change /veh NKD1 (11759106_at) / RFU SRD5A1 (11742802_a_at) / Fold change /veh SRD5A1 (11742802_a_at) / RFU TPSAB1 /// TPSB2 (11721975_s_at) / Fold change /veh TPSAB1 /// TPSB2 (11721975_s_at) / RFU GSTM3 (11746129_a_at) / Fold change /veh GSTM3 (11746129_a_at) / RFU IL23R (11737362_x_at) / Fold change /veh IL23R (11737362_x_at) / RFU TMEM51 (11727254_a_at) / Fold change /veh TMEM51 (11727254_a_at) / RFU PIWIL2 (11732686_x_at) / Fold change /veh PIWIL2 (11732686_x_at) / RFU ORM1 (11744905_x_at) / Fold change /veh ORM1 (11744905_x_at) / RFU CCDC152 (11743942_at) / Fold change /veh CCDC152 (11743942_at) / RFU ECM1 (11717891_a_at) / Fold change /veh ECM1 (11717891_a_at) / RFU IL23R (11748794_a_at) / Fold change /veh IL23R (11748794_a_at) / RFU TNFAIP8L3 (11732012_x_at) / Fold change /veh TNFAIP8L3 (11732012_x_at) / RFU MBOAT4 (11741988_at) / Fold change /veh MBOAT4 (11741988_at) / RFU 11764193_at / Fold change /veh 11764193_at / RFU TMEM53 (11763286_at) / Fold change /veh TMEM53 (11763286_at) / RFU MAGEB2 (11727129_at) / Fold change /veh MAGEB2 (11727129_at) / RFU TMEM200A (11744735_a_at) / Fold change /veh TMEM200A (11744735_a_at) / RFU CCDC152 (11751479_a_at) / Fold change /veh CCDC152 (11751479_a_at) / RFU FAM211A (11726209_a_at) / Fold change /veh FAM211A (11726209_a_at) / RFU RGS16 (11746705_a_at) / Fold change /veh RGS16 (11746705_a_at) / RFU VCAN (11755009_s_at) / Fold change /veh VCAN (11755009_s_at) / RFU RHOB (11743442_s_at) / Fold change /veh RHOB (11743442_s_at) / RFU RGS16 (11720943_a_at) / Fold change /veh RGS16 (11720943_a_at) / RFU RGS16 (11720944_at) / Fold change /veh RGS16 (11720944_at) / RFU, VPS4B / Fold change vs veh, VPS4B / RFU, CREB1 / Fold change vs veh, CREB1 / RFU, DNAJC13 / Fold change vs veh, DNAJC13 / RFU, GNAQ / Fold change vs veh, GNAQ / RFU, CDK5R1 / Fold change vs veh, CDK5R1 / RFU, ZRANB3 / Fold change vs veh, ZRANB3 / RFU, CUL4A / Fold change vs veh, CUL4A / RFU, CCNY / Fold change vs veh, CCNY / RFU, UFL1 / Fold change vs veh, UFL1 / RFU, COG3 / Fold change vs veh, COG3 / RFU, DIAPH2 / Fold change vs veh, DIAPH2 / RFU, SKA2 / Fold change vs veh, SKA2 / RFU, AFF3 / Fold change vs veh, AFF3 / RFU, LMF1 / Fold change vs veh, LMF1 / RFU, IPO11 / Fold change vs veh, IPO11 / RFU, DFFB / Fold change vs veh, DFFB / RFU, FOXP1 / Fold change vs veh, FOXP1 / RFU, CARD8 / Fold change vs veh, CARD8 / RFU, STRN3 / Fold change vs veh, STRN3 / RFU, ADK / Fold change vs veh, ADK / RFU, RASSF2 / Fold change vs veh, RASSF2 / RFU, WIPF1 / Fold change vs veh, WIPF1 / RFU, LARP1B / Fold change vs veh, LARP1B / RFU, RASA1 / Fold change vs veh, RASA1 / RFU, RB1 / Fold change vs veh, RB1 / RFU, PPFIA1 / Fold change vs veh, PPFIA1 / RFU, MAT2A / Fold change vs veh, MAT2A / RFU, CCT5 / Fold change vs veh, CCT5 / RFU, WDR92 / Fold change vs veh, WDR92 / RFU, CUX1 / Fold change vs veh, CUX1 / RFU, TTC7A / Fold change vs veh, TTC7A / RFU, TMEM135 / Fold change vs veh, TMEM135 / RFU, DEPTOR / Fold change vs veh, DEPTOR / RFU, CPM / Fold change vs veh, CPM / RFU, DNAJB6 / Fold change vs veh, DNAJB6 / RFU, CACNA2D3 / Fold change vs veh, CACNA2D3 / RFU, DTX4 / Fold change vs veh, DTX4 / RFU, TFCP2 / Fold change vs veh, TFCP2 / RFU, GMCL1 /// GMCL1P1 / Fold change vs veh, GMCL1 /// GMCL1P1 / RFU, AEBP2 / Fold change vs veh, AEBP2 / RFU, SNHG1 /// SNORD22 /// SNORD25 /// SNORD26 /// SNORD27 /// SNORD28 /// SNORD29 /// SNORD31 / Fold change vs veh, SNHG1 /// SNORD22 /// SNORD25 /// SNORD26 /// SNORD27 /// SNORD28 /// SNORD29 /// SNORD31 / Fold change (Aza/veh), C12orf56 (ProbeSet 11735607_a_at) / Fold change (ACY-1035/veh), C12orf56 (ProbeSet 11735607_a_at) / Fold change (Aza/veh), FGFR1OP (ProbeSet 11751329_s_at) / Fold change (ACY-1035/veh), FGFR1OP (ProbeSet 11751329_s_at) / Fold change (Aza/veh), VPS36 (ProbeSet 11739960_a_at) / Fold change (ACY-1035/veh), VPS36 (ProbeSet 11739960_a_at) / RFU SYPL1 (11715823_x_at) / Fold change /veh SYPL1 (11715823_x_at) / RFU IGFBP7 (11715501_s_at) / Fold change /veh IGFBP7 (11715501_s_at) / RFU REEP3 (11722064_at) / Fold change /veh REEP3 (11722064_at) / RFU IGLL1 (11728026_x_at) / Fold change /veh IGLL1 (11728026_x_at): dose or concentration left out as unconfirmed. Conditions: MV-4-11 cells, 48 hours.

Turning to `Nc1ccc(-c2cccs2)cc1NC(=O)c1ccc2c(c1)cc(C1CC1)n2CCN1CCOCC1` [ACY-1035], the “RFU 11762660_at” value amounted to 11.56 RFU.
